Source: patent US20210061861A1, “D-PEPTIDIC COMPOUNDS FOR VEGF” (Reflexion Pharmaceuticals, Inc., priority 2019, published 2021)
Where “and” joins values, the source holds several entries; their conditions need not be identical. Equal entries are not always repeated. Bridges are numbered along the chain shown (N, C = ends). Where no end group is shown, it is not given here. [ ]: non-standard residue; d: D form.

Key:
[1] = target: T1, VEGF-A121 binding to VEGFR1-Fc (Homo sapiens, UniProt P15692); experiment: non-equilibrium VEGF-A blocking ELISA on VEGFR1-Fc; type: biochemical; conditions: for improvement of IC50 over 11055: non-equilibrium blocking ELISA
T1 construct: purchased Acro Biosystems (VEGF-A121); R&D Systems (VEGFR1-Fc) VE1-H82E7; 3516-FL-050
T1 sequence (P15692 27-147 isoform P15692-9 limits assumed): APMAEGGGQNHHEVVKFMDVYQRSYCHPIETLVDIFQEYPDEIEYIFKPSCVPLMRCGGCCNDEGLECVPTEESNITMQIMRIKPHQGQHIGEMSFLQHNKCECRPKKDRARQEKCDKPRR

[2] = target: T1, VEGF-A121 binding to VEGFR1-Fc; experiment: equilibrium binding VEGF-A121/VEGFR1 blocking ELISA; type: biochemical; conditions: IC50, blocking VEGF-A binding to VEGFR1-Fc, 150 pM VEGF-A, overnight incubation
Text: Biotinylated human VEGF-A121 (isoform 121) was purchased from Acro Biosystems (cat #VE1-H82E7). VEGFR-1-Fc was purchased from R&D Systems (cat #3516-FL-050).
The following day, coated wells were blocked with Super Block (Rockland) for 2 hr with shaking at room temp.
Data plotted are mean±standard deviation of triplicate measurements. IC50 values were derived from 3-parameter fits using Prism (GraphPad) and the error reported is derived from fits.

[3] = system: VEGF-A signaling through VEGFR2; experiment: VEGFR2 luciferase reporter cell signaling assay (KDR/NFAT-RE HEK293); type: cell-based; conditions: 150 pM VEGF-A; read-out: IC50, inhibition of VEGFR2 signaling (luciferase)
Description: Here VEGF-A activates VEGFR2 signaling in 293 cells resulting in luciferase expression as a functional readout. Inhibition of VEGF-A signaling in this system results in a loss of luciferase signal.
Measurement of VEGF cellular signaling was performed using the VEGF Bioassay (Promega). Briefly, HEK293 cells are engineered to express VEGFR-2 coupled to a luciferase response element (KDR/NFAT-RE HEK293). VEGF signaling through VEGFR-2 mediates expression of luciferase which can be quantified using bioluminescence. […] Following incubation Bio-Glo is added to wells according to the manufacturer's protocol and relative luminescence units (RLUs) were measured on a PerkinElmer 2300 Enspire Multimode plate reader. Data plotted are mean±standard deviation of triplicate measurements. IC50 values were derived from 3-parameter fits using Prism (GraphPad) and error reported are derived from fits.

VEGF-A = target: T2, VEGF-A (Homo sapiens, UniProt P15692); experiment: SPR binding of D-peptidic compounds to L-VEGF-A; design: Biotinylated VEGF-A(8-109) was immobilized on a biotin CAPture chip; conditions: for affinity improvement over 11055: SPR KD ratio versus parent 11055
T2 sequence (P15692 214-315): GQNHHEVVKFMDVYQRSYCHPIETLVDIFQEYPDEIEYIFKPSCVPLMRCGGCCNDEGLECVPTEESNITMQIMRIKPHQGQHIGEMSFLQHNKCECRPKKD
Description: Surface plasmon resonance (SPR) binding measurements were carried out on a Biacore S200 (GE). Biotinylated VEGF-A(8-109) was immobilized on a biotin CAPture chip (GE) and serial dilutions of D-proteins were flowed over the chip at 30 μL/min in running buffer (10 mM Hepes, pH 7.4, 150 mM NaCl, 0.05% P20). […] All measurements were carried out at 25° C. SPR data are representative of multiple independent titrations. Kinetic fits were performed using Biacore software using a global single site binding model.

[4] = system: VEGF-A165-induced vascular leakage; experiment: rabbit eye model of wet AMD, fluorescein angiography; type: in vivo; conditions: single intravitreal dose 1.0 mg
Text: FIG. 44A-44B show in vivo activity of D-protein RFX-980869 in a rabbit eye model of wet AMD. (FIG. 44A) Representative fluorescein angiography (FA) images depicting the extent of VEGF-A165-induced vascular leakage at Day 5 and Day 26 post administration of respective drugs (control=no drug treatment). (FIG. 44B) Plots of individual FA scores at Day 5 and Day 26. Scoring is as follows: 0=major vessels straight with some tortuosity of small vessels and no dilation, 1=increased tortuosity of major vessels and some dilation, 2=leakage between major vessels and significant dilation, 3=leakage between major and minor vessels and minor vessels still visible, 4=leakage between major and minor vessels and minor vessels poorly visible or not visible. N=5 rabbits per group (10 eyes). All data is plotted as mean±SEM. (****p<0.0001, Mann-whitney test)
In the rabbit eye model for wet AMD, intravitreal challenge with exogenous VEGF-A165 induces vascular leakage of the retina that can be monitored using fluorescein angiography (FA). VEGF-A blockade can prevent the diffuse leakage of fluorescein into the eye, which serves as a measure of efficacy. […] After a single intravitreal administration of RFX-980869 at 0.25 mg or 1.0 mg per eye, rabbits were challenged with exogenous VEGF-A twice over a 1-month period (Day 2 and Day 23) and their eyes were examined three days later (Day 5 and Day 26). […]

MC38 colon cancer tumors = experiment: MC38 syngeneic tumor model in C57BL6 mice; type: in vivo, mouse
Text: To assess the tumor growth inhibition potential of RFX-980869, the cross-reactivity of RFX-980869 with mouse VEGF-A (data not shown) was studied and used the syngeneic MC38 mouse tumor model. MC38 colon cancer tumors were established in C57BL6 mice transgenic for human PD-1, and reached 82 mm3 prior to initiation of treatment.
Female C57BL6 mice transgenic for human PD-1 (12-13 weeks) were purchased from Beijing Biocytogen Co.). […] MC38 tumor cells (1×10^6) were implanted subcutaneously in the right front flank and tumors were allowed to establish until the mean volume was 82 mm^3. Mice were randomized into treatment groups (N=6 per group) on Day 0 when treatment initiation began. […] All data is plotted as mean ±SEM.

[5] = anti-drug antibodies in serum of the MC38 tumor study; type: in vivo, mouse; conditions: Day 22 serum, low and high dose groups
Text: FIG. 45A-45D show tumor growth inhibition activity of RFX-980869 and lack of immunogenicity. […] N=6 mice per group. (FIG. 45B) Day 15 tumor volumes (*p<0.05, Mann-whitney test) (FIG. 45C) Anti-drug-antibodies from MC38 tumor study measured in Day 22 serum samples using an ELISA for antigen-specific serum IgG. (FIG. 45D) Anti-drug-antibody titers measured from Day 42 serum after subcutaneous immunization of corresponding drugs in BALB/c mice. N=5 mice per group. All data is plotted as mean±SEM.

[6] = subcutaneous immunization in BALB/c mice; conditions: Day 42 serum; 25 μg s.c. Days 0, 21, 35, adjuvant on Day 0
Description: Female BALB/c mice (6-8 weeks) were randomized into immunization groups on Day 0 (n=5 per group) Immunizations were performed on Days 0, 21, 35 by subcutaneous injection of 25 μg of antigen. Antigens were emulsified in adjuvant (TiterMax) for injection on Day 0 and administered in PBS for Days 21 and 35. Serum pre-bleeds were performed on Days 0, 21, 35 prior to immunizations. Final bleeds for max titer response were taken on Day 42.

D-VEGF-A = experiment: competitive phage ELISA, D-VEGF-A binding of L-peptidic compounds; conditions: D-VEGF-A binding activity
Description: Compounds of interest were assessed for VEGF-A binding in a competitive phage ELISA assay.

Text for HUVEC cell proliferation: Here, HUVEC cell proliferation is increased in the presence of recombinant VEGF-A and antagonist compounds that block VEGF-A signaling reduce HUVEC cell proliferation.

For “[dY][dH][dI][dQ][dW][dV][dC][dK][dN][dA][dK][dE][dD][dA][dI][dA][dE][dL][dK][dK][dA]G[dI][dT][dE][dP][dH][dV][dI][dS][dF][dI][dN][dH][dA][dP][dN][dC][dS][dH][dV][dN]G[dL][dK][dN][dA][dI][dL][dK][dA][dH][dA]-NH2 (disulfide 7-38) [Compound 979110, yhiqwvcknakedaiaelkkaGitephvisfinhapncshvnGlknailkaha]”, the IC50 [1] was 3.5 nM, the “improvement of IC50 over 11055” value [1] was 14.8 fold and the “improvement of IC50 over 11055” value ([1]; listed as RFX-979110) was 15 fold. The IC50 [2] was 7 nM and 7.6 nM, the IC50 [3] was 6.1 nM and the “fold weaker than bevacizumab (Avastin)” value (HUVEC cell proliferation; HUVEC proliferation) was 185 fold. The “potency improvement over 11055” value (HUVEC cell proliferation; HUVEC proliferation) was 4 fold, the IC50 (HUVEC cell proliferation; read-out: IC50 for inhibition of cell proliferation in response to VEGF signaling, HUVEC, recombinant VEGF-A) was 131 nM and the “affinity improvement over 11055” value (VEGF-A) was about 10 fold. The “affinity improvement over 11055” value (VEGF-A; listed as RFX-979110) was 19 fold and the Kd (VEGF-A; VEGF-A binding affinity (KD) measured by SPR, running text and figure legends, L-VEGF-A) was 3.6 nM and 2.3 nM.
For aflibercept, the “vascular leakage at Day 26” value [4] was “completely blocked vascular leakage”.
For nivolumab, the “tumor growth versus vehicle control group” value (MC38 colon cancer tumors; 1 mg/kg biweekly, i.p.) was “failed to show tumor growth inhibition”, the “MC38 tumor growth curves” value (MC38 colon cancer tumors; FIG. 45A, over both dose levels) was “dose-dependent efficacy” and the tumor growth inhibition (MC38 colon cancer tumors; day 15, 3 mg/kg biweekly) was 48%. For the same substance, the “anti-drug-antibodies, antigen-specific serum IgG titer” value [5] was “saturating levels of IgG titer” and the “anti-drug-antibody IgG titer after immunization” value [6] was “strong IgG titers”.
With “tidqwllknakedaiaelkkcGitephvisfinhapyvshvnGlkanilkaha [Compound 1.1.1]” the IC50 (D-VEGF-A) was 20 to 34 nM.
